Data published in patent US7345083B2, “Hydroisoindoline tachykinin receptor antagonists” (Merck & Co., Inc., priority 2004, dated 2008).

C[C@@H](O[C@H]1CC[C@@H]2CN(C3=CC(=O)CC3)C[C@H]2[C@@H]1c1ccc(F)cc1)c1cc(C(F)(F)F)cc(C(F)(F)F)c1 [Example 7, 3-[(3aR,4R,5S,7aS)-5-{(1R)-1-[3,5-bis(Trifluoromethyl)phenyl]ethoxy}-4-(4-fluorophenyl)-octahydro-2H-isoindol-2-yl]cyclopent-2-en-1-one]
melting point: 216.5 to 217.5 °C
